In one data set the target is 27 kinases. Briefly: kinase panel experiment. The class given is biochemical. As to conditions: almost no inhibitory activity, read-out: IC50 against 27 kinases.
In data set [1] the test system is TGF-β-treated human skin fibroblast. The data set can be described thus: α-SMA and pro-COL1A1 protein ELISA in TGF-β-treated skin fibroblasts (Protocol 1). To be noted: TGF-β 1 ng/mL, 24 h; for pro-COL1A1 protein expression / α-SMA protein expression: 1-300 nM, 0.5 h pre-treatment, ELISA. The data set is classed as cell-based. The method, then: Primary human skin fibroblasts (NHDF-Ad) were obtained from Lonza (Basel, Switzerland). Cells were cultured and maintained in growth medium: Fibroblast Basal Medium (FBM) containing human fibroblast growth factor-B, insulin, fetal bovine serum (FBS) and gentamicin/amphotericin-B (Lonza). Cells were maintained in a humidified incubator at 37°C with 5% CO2 and used for experiments between passages 5 to 8.
Protocol 1: Cells were allowed to adhere overnight before being replaced with serum-free FBM for 24 h. Serum-starved cells were first pretreated with samples in DMSO at concentrations between 1 and 300 nM for 30 min and then stimulated with 1 ng/mL recombinant human TGF-β (R&D Systems, Minneapolis, MN, USA) for 24 h.
Cell lysates were prepared with cell lysis buffer (Cell Signaling Technology, Beverly, MA, USA) and subjected to α-SMA ELISA system (Abnova, Taipei, Taiwan) and Pro-type I Collagen α1 (pro-COL1A1) SimpleStep ELISA Kit (Abcam, Cambridge, UK, USA) according to the manufacturer's protocol.

Data set [2] concerns Smad3 and phosphorylated Smad3 in human skin fibroblasts. The data set can be described thus: Smad3 activation in western blotting. The class given is cell-based. To be noted: 24 h treatment, then TGF-β 1 ng/mL 30 min; tested at 30 and 300 nM; western blot. Here is the method: Cells were allowed to adhere overnight before being replaced with serum-free FBM for 24 h. Serum-starved cells were first pretreated with samples in DMSO at 30 and 300 nM for 24 h and then stimulated with 1 ng/mL TGF-β for 30 min. Cell lysates were prepared with lysis buffer and cellular proteins (11 μg/well) were separated by sodium dodecyl sulfate-polyacrylamide gel electrophoresis (4–20% Criterion TGX Precast Gel; Bio-Rad, Ontario, CA, USA). Protein bands were then transferred to polyvinylidene fluoride membranes (Trans-Blot Turbo Midi, Bio-Rad). Following blocking, the membranes were incubated with primary antibodies targeted against phospho-Smad3 (Cell Signaling Technology), Smad3 (Cell Signaling Technology) and β-actin (Cell Signaling Technology) followed by horseradish peroxidase-conjugated secondary antibody (Cell Signaling Technology). ECL Prime Western Blotting Detection Reagent (GE Healthcare Bio-Sciences, Little Chalfont, England) and LAS-3000 image analyzer (Fuji-film, Tokyo, Japan) were used for detection. Western blot band intensities were calculated by densitometric analyses with National Institutes of Health image software, Image J. Representative pictures are shown with quantified densitometric data.

Data set [3] concerns TGF-β-induced fibrotic genes expression in mouse ear skin. The data set can be described thus: TGF-β-induced fibrotic gene expression in mouse ear, topical application. The class given is in vivo. As to conditions: for expression of fibrosis-related genes (Col1a1, Col1a2, α-Sma) in mouse ear: topical cream daily, 1 h before TGF-β 500 ng intradermal x5, T-3833261 0.01-0.1%, HF 0.01%. The method, then: Standard chow diet and water were available ad libitum.
A vehicle without compounds was applied to control mice. […] Topical application of compound was continued for 7 days.
Total RNA was isolated from in vivo samples using ISOGEN II (Nippongene) according to the manufacturer's instructions. In vitro RNA samples were prepared as mentioned above. High Capacity cDNA Reverse Transcription Kit (Life Technologies, Carlsbad, CA, USA) was used for cDNA synthesis. Real-time quantitative RT-PCR reactions were performed as a TaqMan method on a ViiA 7 real-Time PCR System (Life Technologies), using TaqMan Fast Advanced Master Mix (Lifer Technologies) with specific primers on TaqMan Gene Expression Assays (Life Technologies) according to the manufacturer's manual. FAM-probed primers were used: COL1A1, Hs00164004_m1; α-SMA/ACTA2, Hs00426835_g1; fibroblast growth factor 2 (FGF2), Hs00266645_m1; Smad specific E3 ubiquitin protein ligase 2 (SMURF2), Hs00224203_m1; DDIT3, Hs00358796_g1; and glyceraldehyde 3-phosphate dehydrogenase (GAPDH), 4326317E for human in vitro cell assay. FAM-probed and TAMRA-quenched primers (Sigma-Aldrich Japan, Tokyo, Japan) were used: Col1a1, NM_007742; type I collagen alpha 2 (Col1a2), NM_007743; α-Sma/Acta2, NM_007392; and Gapdh, NM_008084 for mouse in vivo assay (S1 Table). The relative mRNA level of the target genes was calculated by the comparative threshold cycle (Ct) method using GAPDH (Gapdh) as an internal control for normalization. The fold change in the expression of each target gene was calculated by the following formula: relative quantification (RQ) = 2^-ΔΔCt.

The subject of the next data set is skin fibroblasts. The data set can be described thus: Proline addition assay (α-SMA mRNA). The data set is classed as cell-based, human. To be noted: proline 0.05, 0.2 and 1 mM; compound 1-300 nM; 24 h. The method, then: Total RNA was isolated from in vivo samples using ISOGEN II (Nippongene) according to the manufacturer's instructions. In vitro RNA samples were prepared as mentioned above. High Capacity cDNA Reverse Transcription Kit (Life Technologies, Carlsbad, CA, USA) was used for cDNA synthesis. Real-time quantitative RT-PCR reactions were performed as a TaqMan method on a ViiA 7 real-Time PCR System (Life Technologies), using TaqMan Fast Advanced Master Mix (Lifer Technologies) with specific primers on TaqMan Gene Expression Assays (Life Technologies) according to the manufacturer's manual. […] The relative mRNA level of the target genes was calculated by the comparative threshold cycle (Ct) method using GAPDH (Gapdh) as an internal control for normalization. The fold change in the expression of each target gene was calculated by the following formula: relative quantification (RQ) = 2^-ΔΔCt.
To evaluate the effect of proline addition on anti-fibrosis by each compound, the cells were allowed to adhere overnight before being replaced with serum-free FBM for 24 h. […] Then real-time quantitative RT-PCR analysis was conducted as mentioned above.

The nature of data set [4]: body weight and tolerability on topical application in mice. As to conditions: mouse; for Body weight day 0 / Body weight day 7: topical, mean ± SE (n = 4-8); for tolerability: dermal topical application.
Procedure: The experimenters were blinded to the treatments given to the animals and to the biochemical and histological analyses and the data analyses. Eight-week-old C3H/He male mice (weighing 23~28 g, Japan SLC, Inc., Hamamatsu, Japan) were used for all the in vivo experiments. […] These animals were maintained on a 12/12 h light/dark cycle with constant temperature (23 ± 2°C) under specific pathogen-free conditions. Standard chow diet and water were available ad libitum.
After acclimatization for 1 weeks, animals were randomly divided according to body weight and treated for 3 to 5 consecutive days as follows. The ear and dorsal skin of mouse were intradermally injected with 20 μL (100 μL, dorsal skin) PBS or 500 ng TGF-β in PBS under anaesthesia with 3–4% sevoflurane. Injections were continued in this manner daily for 3 days (days 0, 1 and 2) or 5 days (days 0, 1, 2, 3 and 4). Treatment protocol included the daily topical application of T-3833261 or HF cream on the ear (40 μL/ear) 1 h before injections into the ear. A vehicle without compounds was applied to control mice. The topical material contained sorbitan sesquioleate (50 g), lanolin (50 g), liquid paraffin (250 g), propylene glycol (50 g), 90% lactic acid (1.5 g), T-3833261 (0.1, 0.3 and 1 g) or HF (0.1 g), and distilled water as the rest material. Topical application of compound was continued for 7 days. Mice were euthanized by cervical dislocation under sevoflurane anesthesia at 3 or 5 days after last TGF-β injection and the ear surrounding the TGF-β injection site was harvested with 8 μm biopsy punch under anesthesia.

On to `Cn1cc(-c2cc(F)cc(CNC(=O)c3nccc4nc(C5CCCC5)[nH]c34)c2)cn1` [T-3833261, 2-Cyclopentyl-N-(3-fluoro-5-(1-methyl-1H-pyrazol-4-yl)benzyl)-3H-imidazo[4,5-c]pyridine-4-carboxamide], for which the half-inhibitory concentration (IC50) on 27 kinases was greater than 1000 nM. In data set [1], the pro-COL1A1 protein expression entry is listed as “suppressed pro-COL1A1 protein expression in a dose-dependent manner”; the α-SMA protein expression result was “suppressed α-SMA protein expression in a dose-dependent manner”; the “concentration reducing α-SMA and pro-COL1A1 proteins below the basal level of non-stimulated cells” value is given as no less than 100 nM. In data set [2], the “concentration showing a decrease in TGF-β-induced accumulation of Smad3” value is listed as 30 nM and the “concentration showing a decrease in phosphorylated Smad3 (p-Smad3)” value turned out to be 300 nM. Besides, the “activity on fibrotic gene expression relative to HF formulation” value in data set [3] (0.1% formulation of T-3833261, topical, mouse ear) is “comparable activity to a 0.01% HF formulation”. In addition, the “expression of fibrosis-related genes (Col1a1, Col1a2, α-Sma) in mouse ear” value in data set [3] was “reduced expression of these fibrotic genes in a dose-dependent manner”. Besides, the “effect of proline addition on inhibition of α-SMA gene expression” value in the data set with skin fibroblasts is “proline addition did not affect the activity”. For the same molecule, in data set [4] (0.01% cream), the “Body weight day 0” value was 22.9 ± 0.8 g and the “Body weight day 7” value came out at 23.8 ± 0.5 g. In addition, in data set [4] (0.03% cream), the “Body weight day 0” value was 23.1 ± 0.6 g and the “Body weight day 7” value worked out at 23.4 ± 0.4 g. Besides, in data set [4] (0.1% cream), the “Body weight day 0” value is 22.4 ± 0.4 g and the “Body weight day 7” value was 22.2 ± 0.5 g. The tolerability entry in data set [4] is “well-tolerated”. In data set [4] (topical cream), the “body weight of the mice after one week of continuous topical application” value is recorded as “did not change”.
On to `O=C(CC1NCCCC1O)Cn1cnc2cc(Br)c(Cl)cc2c1=O` (stereo not shown) [HF, Halofuginone, reference compound], for which, in data set [1], the pro-COL1A1 protein expression entry is “suppressed pro-COL1A1 protein expression in a dose-dependent manner”; the α-SMA protein expression result was “suppressed α-SMA protein expression in a dose-dependent manner”; the “concentration reducing α-SMA and pro-COL1A1 proteins below the basal level of non-stimulated cells” value is recorded as no less than 100 nM. Also, in data set [2], the “concentration showing a decrease in TGF-β-induced accumulation of Smad3” value is 300 nM and the “concentration showing a decrease in phosphorylated Smad3 (p-Smad3)” value turned out to be 300 nM. For the same molecule, the “expression of fibrosis-related genes (Col1a1, Col1a2, α-Sma) in mouse ear” value in data set [3] was “prevented the skin fibrotic genes expression induced by TGF-β”. In the data set with skin fibroblasts, the “effect of proline addition on inhibition of α-SMA gene expression” value is “attenuated by adding proline to the medium”. The tolerability result in data set [4] is “well-tolerated”.

Source of the values: publication PMC5655428, “Discovery and pharmacological characterization of a new class of prolyl-tRNA synthetase inhibitor for anti-fibrosis therapy” (PLoS ONE, 2017).
